Results as given in PubChem BioAssay (NCI).
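Method: 48-hour compound exposure of cells in 96-well plates, five concentrations, linear interpolation of endpoints. The concentration for 50% growth inhibition is given as GI50. At the TGI there is no net growth.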

How the values were obtained:
Test in all cases: inhibition of tumour cell growth, NCI panel, 48 h
HCC-2998 colon = system: HCC-2998 colon
786-0 renal = system: 786-0 renal
MOLT-4 leukemia = system: MOLT-4 leukemia
HCT-15 colon = system: HCT-15 colon
HOP-92 NSCLC = system: HOP-92 NSCLC
RPMI-8226 leukemia = system: RPMI-8226 leukemia
KM12 colon = system: KM12 colon
M14 melanoma = system: M14 melanoma
DU-145 prostate = system: DU-145 prostate
HS 578T breast = system: HS 578T breast
PC-3 prostate = system: PC-3 prostate
OVCAR-4 ovarian = system: OVCAR-4 ovarian
MDA-MB-435 = system: MDA-MB-435
HL-60(TB) leukemia = system: HL-60(TB) leukemia
OVCAR-5 ovarian = system: OVCAR-5 ovarian
BT-549 breast = system: BT-549 breast
SK-MEL-2 melanoma = system: SK-MEL-2 melanoma
OVCAR-8 ovarian = system: OVCAR-8 ovarian
SF-539 CNS = system: SF-539 CNS
A498 renal = system: A498 renal
SNB-75 CNS = system: SNB-75 CNS
HOP-62 NSCLC = system: HOP-62 NSCLC
NCI-H460 lung = system: NCI-H460 lung
LOX IMVI melanoma = system: LOX IMVI melanoma
CCRF-CEM leukemia = system: CCRF-CEM leukemia
T-47D breast = system: T-47D breast
MALME-3M melanoma = system: MALME-3M melanoma
NCI/ADR-RES ovarian = system: NCI/ADR-RES ovarian
HT29 colon = system: HT29 colon
COLO 205 colon = system: COLO 205 colon
MCF7 breast = system: MCF7 breast
MDA-MB-231 breast = system: MDA-MB-231 breast
K-562 leukemia = system: K-562 leukemia
TK-10 renal = system: TK-10 renal
UACC-62 melanoma = system: UACC-62 melanoma
NCI-H23 lung = system: NCI-H23 lung
UO-31 renal = system: UO-31 renal
SNB-19 CNS = system: SNB-19 CNS
HCT-116 colon = system: HCT-116 colon
SF-295 CNS = system: SF-295 CNS
SK-MEL-28 melanoma = system: SK-MEL-28 melanoma
SF-268 CNS = system: SF-268 CNS
SK-OV-3 ovarian = system: SK-OV-3 ovarian
RXF 393 renal = system: RXF 393 renal
A549 NSCLC = system: A549 NSCLC
NCI-H522 lung = system: NCI-H522 lung
ACHN renal = system: ACHN renal
EKVX NSCLC = system: EKVX NSCLC
SR leukemia = system: SR leukemia
IGROV1 ovarian = system: IGROV1 ovarian
MDA-N = system: MDA-N
OVCAR-3 ovarian = system: OVCAR-3 ovarian
U251 CNS = system: U251 CNS
CAKI-1 renal = system: CAKI-1 renal
SK-MEL-5 melanoma = system: SK-MEL-5 melanoma
SW-620 colon = system: SW-620 colon
SN12C renal = system: SN12C renal
UACC-257 melanoma = system: UACC-257 melanoma
NCI-H226 lung = system: NCI-H226 lung

CCOC(=O)c1ccc(N(CCOS(C)(=O)=O)CCOS(C)(=O)=O)cc1C
GI50 (HCC-2998 colon): 28.1 µM
TGI (HCC-2998 colon): 66.6 µM
GI50 (786-0 renal): 16.7 µM
TGI (786-0 renal): 42.2 µM
GI50 (MOLT-4 leukemia): 7.01 µM
TGI (MOLT-4 leukemia): > 100 µM
GI50 (HCT-15 colon): 28.2 µM
TGI (HCT-15 colon): > 100 µM
GI50 (HOP-92 NSCLC): 36.7 µM
TGI (HOP-92 NSCLC): > 100 µM
GI50 (RPMI-8226 leukemia): 22.2 µM
TGI (RPMI-8226 leukemia): > 100 µM
GI50 (KM12 colon): 90.4 µM
TGI (KM12 colon): > 100 µM
GI50 (M14 melanoma): 40.5 µM
TGI (M14 melanoma): > 100 µM
GI50 (DU-145 prostate): 18.4 µM
TGI (DU-145 prostate): 38.9 µM
GI50 (HS 578T breast): 64.1 µM
TGI (HS 578T breast): > 100 µM
GI50 (PC-3 prostate): 30.4 µM
TGI (PC-3 prostate): > 100 µM
GI50 (OVCAR-4 ovarian): 20.9 µM
TGI (OVCAR-4 ovarian): 46.8 µM
GI50 (MDA-MB-435): 48.5 µM
TGI (MDA-MB-435): > 100 µM
GI50 (HL-60(TB) leukemia): 8.08 µM
TGI (HL-60(TB) leukemia): 51.2 µM
GI50 (OVCAR-5 ovarian): 38.1 µM
TGI (OVCAR-5 ovarian): 94 µM
GI50 (BT-549 breast): 34.1 µM
TGI (BT-549 breast): > 100 µM
GI50 (SK-MEL-2 melanoma): 28.6 µM
TGI (SK-MEL-2 melanoma): 67.5 µM
GI50 (OVCAR-8 ovarian): 44 µM
TGI (OVCAR-8 ovarian): > 100 µM
GI50 (SF-539 CNS): 23.9 µM
TGI (SF-539 CNS): > 100 µM
GI50 (A498 renal): 24.1 µM
TGI (A498 renal): 73.3 µM
GI50 (SNB-75 CNS): 34.5 µM
TGI (SNB-75 CNS): 87.1 µM
GI50 (HOP-62 NSCLC): 17.6 µM
TGI (HOP-62 NSCLC): 55 µM
GI50 (NCI-H460 lung): 27.8 µM
TGI (NCI-H460 lung): > 100 µM
GI50 (LOX IMVI melanoma): 29.1 µM
TGI (LOX IMVI melanoma): > 100 µM
GI50 (CCRF-CEM leukemia): 10 µM
TGI (CCRF-CEM leukemia): > 100 µM
GI50 (T-47D breast): 16.6 µM
TGI (T-47D breast): 62.1 µM
GI50 (MALME-3M melanoma): 29 µM
TGI (MALME-3M melanoma): > 100 µM
GI50 (NCI/ADR-RES ovarian): 23.7 µM
TGI (NCI/ADR-RES ovarian): 66.9 µM
GI50 (HT29 colon): 26.3 µM
TGI (HT29 colon): > 100 µM
GI50 (COLO 205 colon): 38.4 µM
TGI (COLO 205 colon): > 100 µM
GI50 (MCF7 breast): 17.5 µM
TGI (MCF7 breast): > 100 µM
GI50 (MDA-MB-231 breast): 77.9 µM
TGI (MDA-MB-231 breast): > 100 µM
GI50 (K-562 leukemia): 49.7 µM
TGI (K-562 leukemia): > 100 µM
GI50 (TK-10 renal): 50.7 µM
TGI (TK-10 renal): > 100 µM
GI50 (UACC-62 melanoma): 23.8 µM
TGI (UACC-62 melanoma): 95.4 µM
GI50 (NCI-H23 lung): 15.1 µM
TGI (NCI-H23 lung): 55.5 µM
GI50 (UO-31 renal): 23.1 µM
TGI (UO-31 renal): 45.9 µM
GI50 (SNB-19 CNS): 62.6 µM
TGI (SNB-19 CNS): > 100 µM
GI50 (HCT-116 colon): 33.4 µM
TGI (HCT-116 colon): > 100 µM
GI50 (SF-295 CNS): 21.9 µM
TGI (SF-295 CNS): > 100 µM
GI50 (SK-MEL-28 melanoma): > 100 µM
TGI (SK-MEL-28 melanoma): > 100 µM
GI50 (SF-268 CNS): 22 µM
TGI (SF-268 CNS): 82.7 µM
GI50 (SK-OV-3 ovarian): 33.6 µM
TGI (SK-OV-3 ovarian): > 100 µM
GI50 (RXF 393 renal): 17.8 µM
TGI (RXF 393 renal): 33.3 µM
GI50 (A549 NSCLC): 44.5 µM
TGI (A549 NSCLC): > 100 µM
GI50 (NCI-H522 lung): 18.8 µM
TGI (NCI-H522 lung): 61.8 µM
GI50 (ACHN renal): 9.94 µM
TGI (ACHN renal): 42.7 µM
GI50 (EKVX NSCLC): 29.5 µM
TGI (EKVX NSCLC): > 100 µM
GI50 (SR leukemia): 2.83 µM
TGI (SR leukemia): > 100 µM
GI50 (IGROV1 ovarian): 91.4 µM
TGI (IGROV1 ovarian): > 100 µM
GI50 (MDA-N): 57.8 µM
TGI (MDA-N): > 100 µM
GI50 (OVCAR-3 ovarian): 18.8 µM
TGI (OVCAR-3 ovarian): 44 µM
GI50 (U251 CNS): 26.4 µM
TGI (U251 CNS): > 100 µM
GI50 (CAKI-1 renal): 6.32 µM
TGI (CAKI-1 renal): 27.1 µM
GI50 (SK-MEL-5 melanoma): 35.9 µM
TGI (SK-MEL-5 melanoma): > 100 µM
GI50 (SW-620 colon): 88.2 µM
TGI (SW-620 colon): > 100 µM
GI50 (SN12C renal): 24.7 µM
TGI (SN12C renal): > 100 µM
GI50 (UACC-257 melanoma): 69.6 µM
TGI (UACC-257 melanoma): > 100 µM

COc1ccc(N=C2C(=O)C3=C(OC(C)(C)CC3)c3ccccc32)cc1
TGI (HCC-2998 colon): 3.96 µM
TGI (786-0 renal): 1.99 µM
TGI (MOLT-4 leukemia): 5.29 µM
TGI (HCT-15 colon): 10.8 µM
TGI (HOP-92 NSCLC): 22.2 µM
TGI (KM12 colon): 1.97 µM
TGI (M14 melanoma): 1.5 µM
TGI (DU-145 prostate): 1.57 µM
TGI (HS 578T breast): 48.8 µM
TGI (PC-3 prostate): 5.49 µM
TGI (OVCAR-4 ovarian): 1.51 µM
TGI (MDA-MB-435): 0.502 µM
TGI (HL-60(TB) leukemia): 4.38 µM
TGI (OVCAR-5 ovarian): 6.14 µM
TGI (BT-549 breast): 2.58 µM
TGI (SK-MEL-2 melanoma): 2.46 µM
TGI (OVCAR-8 ovarian): 8.37 µM
TGI (SF-539 CNS): 0.806 µM
TGI (A498 renal): 14.7 µM
TGI (SNB-75 CNS): 1.96 µM
TGI (HOP-62 NSCLC): 1.89 µM
TGI (NCI-H460 lung): 5.72 µM
TGI (LOX IMVI melanoma): 10.3 µM
TGI (CCRF-CEM leukemia): 4.43 µM
TGI (T-47D breast): 2.2 µM
TGI (MALME-3M melanoma): 1.59 µM
TGI (NCI/ADR-RES ovarian): 16.7 µM
TGI (HT29 colon): 1.57 µM
TGI (COLO 205 colon): 5.8 µM
TGI (MCF7 breast): 1.87 µM
TGI (MDA-MB-231 breast): 5.44 µM
TGI (K-562 leukemia): 2.24 µM
TGI (TK-10 renal): 7.93 µM
TGI (UACC-62 melanoma): 1.74 µM
TGI (NCI-H23 lung): 13 µM
TGI (UO-31 renal): 1.69 µM
TGI (SNB-19 CNS): 2.36 µM
TGI (HCT-116 colon): 1.48 µM
TGI (SF-295 CNS): 1.56 µM
TGI (SK-MEL-28 melanoma): 2.48 µM
TGI (SF-268 CNS): 10.7 µM
TGI (SK-OV-3 ovarian): 4.4 µM
TGI (RXF 393 renal): 2.43 µM
TGI (A549 NSCLC): 1.94 µM
TGI (NCI-H522 lung): 2.45 µM
TGI (ACHN renal): 1.57 µM
TGI (EKVX NSCLC): 1.86 µM
TGI (SR leukemia): 3.44 µM
TGI (IGROV1 ovarian): 11.2 µM
TGI (MDA-N): 1.26 µM
TGI (OVCAR-3 ovarian): 1.5 µM
TGI (NCI-H226 lung): 20.4 µM
TGI (U251 CNS): 1.65 µM
TGI (CAKI-1 renal): 1.84 µM
TGI (SK-MEL-5 melanoma): 1.53 µM
TGI (SW-620 colon): 1.56 µM
TGI (SN12C renal): 1.63 µM
TGI (UACC-257 melanoma): 2.09 µM
